Results reported in PubChem BioAssay (NCI).
Where “and” joins values, the source holds several entries; their conditions need not be identical. Equal entries are not always repeated.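 Where inhibition never reached the appropriate level, the endpoint shown equals the highest concentration tested. Otherwise, values were interpolated linearly from a five-concentration, 48-hour dose response in 96-well plates. Here, GI50 denotes the concentration required for 50% inhibition of growth. At the TGI there is no net growth.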

Assays:
Experiment in all cases: DTP human tumour cell line panel, 48 h
OVCAR-8 ovarian = tested on: OVCAR-8 ovarian
ACHN renal = tested on: ACHN renal
SF-539 CNS = tested on: SF-539 CNS
HOP-92 NSCLC = tested on: HOP-92 NSCLC
UACC-257 melanoma = tested on: UACC-257 melanoma
SK-OV-3 ovarian = tested on: SK-OV-3 ovarian
NCI-H226 lung = tested on: NCI-H226 lung
M14 melanoma = tested on: M14 melanoma
NCI-H522 lung = tested on: NCI-H522 lung
COLO 205 colon = tested on: COLO 205 colon

## COc1cc2nc(Cl)nc(Nc3cccc(C(=O)/C=C/c4ccccc4)c3)c2cc1OC
OVCAR-8 ovarian
  GI50: 4.99 µM
  TGI: > 100 µM
ACHN renal
  GI50: 3.51 µM
  TGI: > 100 µM
SF-539 CNS
  GI50: 3.82 µM
  TGI: 19.2 µM
HOP-92 NSCLC
  GI50: 2.09 µM
  TGI: 8.52 µM
UACC-257 melanoma
  GI50: > 31.2 µM
  TGI: > 100 µM
SK-OV-3 ovarian
  GI50: 7.96 µM
  TGI: 51.7 µM
NCI-H226 lung
  GI50: 5.81 µM
  TGI: > 100 µM
M14 melanoma
  GI50: 5.01 µM
  TGI: > 100 µM
NCI-H522 lung
  GI50: 3.09 µM
  TGI: 52.6 µM
COLO 205 colon
  GI50: 11.4 µM
  TGI: > 100 µM

## C=C(C)[C@@H]1CC=C(CO)CC1
OVCAR-8 ovarian
  GI50: > 10 µM
  TGI: > 10 µM and 857 µM
ACHN renal
  GI50: > 10 µM
  TGI: > 10 µM and 657 µM
SF-539 CNS
  GI50: > 10 µM
  TGI: > 10 µM and 1120 µM
HOP-92 NSCLC
  GI50: > 10 µM
  TGI: > 10 µM and 830 µM
UACC-257 melanoma
  GI50: > 10 µM
  TGI: > 10 µM and 1150 µM
SK-OV-3 ovarian
  GI50: > 10 µM
  TGI: > 10 µM and 2570 µM
NCI-H226 lung
  GI50: > 10 µM
  TGI: > 10 µM and 1090 µM
M14 melanoma
  GI50: > 10 µM
  TGI: > 10 µM and 1410 µM
NCI-H522 lung
  GI50: > 10 µM
  TGI: > 10 µM and 1150 µM
COLO 205 colon
  GI50: > 10 µM
  TGI: > 10 µM and 768 µM

## CC1=CC(=O)c2c(O)cccc2C1=O
OVCAR-8 ovarian
  TGI: 3.2 µM
ACHN renal
  TGI: 3.01 µM
SF-539 CNS
  TGI: 3.92 µM
HOP-92 NSCLC
  TGI: 1.43 µM
UACC-257 melanoma
  TGI: 3.27 µM
SK-OV-3 ovarian
  TGI: 27.2 µM
NCI-H226 lung
  TGI: 24.6 µM
M14 melanoma
  TGI: 3.3 µM
NCI-H522 lung
  TGI: 3.01 µM
COLO 205 colon
  TGI: 3.39 µM

## N=C(N)c1nn(C2OC(CO)C(O)C2O)c2nc[nH]c(=O)c12 (configuration not stated)
OVCAR-8 ovarian
  GI50: 0.435 µM
  TGI: 7.22 µM
ACHN renal
  GI50: 0.292 µM
  TGI: 1.99 µM
SF-539 CNS
  GI50: 0.367 µM
  TGI: 1.75 µM
HOP-92 NSCLC
  GI50: 1.29 µM
  TGI: 5.93 µM
UACC-257 melanoma
  GI50: 0.292 µM
  TGI: 1.29 µM
SK-OV-3 ovarian
  GI50: 0.409 µM
  TGI: 2.97 µM
NCI-H226 lung
  GI50: 0.611 µM
  TGI: 3.74 µM
M14 melanoma
  GI50: 0.454 µM
  TGI: 1.75 µM
NCI-H522 lung
  GI50: 0.239 µM
  TGI: 0.69 µM
COLO 205 colon
  GI50: 1.01 µM
  TGI: 3.26 µM

## CCc1ccc(NCc2cc(OC)c(OC)c(OC)c2)cc1
OVCAR-8 ovarian
  GI50: 0.687 µM and 1.45 µM
  TGI: 43.6 µM and 48.1 µM
ACHN renal
  TGI: 66.7 µM and 77.4 µM
SF-539 CNS
  GI50: 0.296 µM and 0.107 µM
  TGI: 1.02 µM and 0.814 µM
HOP-92 NSCLC
  GI50: 5.24 µM
  TGI: 22.2 µM and 74.6 µM
UACC-257 melanoma
  TGI: > 100 µM
SK-OV-3 ovarian
  GI50: 0.315 µM and 0.152 µM
  TGI: 9.02 µM and 16.9 µM
NCI-H226 lung
  TGI: > 85 µM
M14 melanoma
  GI50: 0.261 µM and 0.392 µM
  TGI: 27.6 µM
NCI-H522 lung
  GI50: 0.274 µM
  TGI: 0.59 µM and 0.807 µM
COLO 205 colon
  GI50: 0.251 µM and 0.333 µM
  TGI: 1.3 µM and 1.47 µM

## COc1ccc(C(=O)/C=C/c2ccc(Cl)cc2)cc1S(=O)(=O)Nc1c(N)nc(SC)[nH]c1=O
OVCAR-8 ovarian
  GI50: 3.07 µM
  TGI: 9.56 µM
ACHN renal
  GI50: 3.23 µM
  TGI: 12.1 µM
SF-539 CNS
  GI50: 2.1 µM
  TGI: 5 µM
HOP-92 NSCLC
  GI50: 2.59 µM
  TGI: 7.99 µM
UACC-257 melanoma
  GI50: 8.27 µM
  TGI: 21.4 µM
SK-OV-3 ovarian
  GI50: 3.65 µM
  TGI: 13.4 µM
NCI-H226 lung
  GI50: 2.34 µM
  TGI: 8.36 µM
M14 melanoma
  GI50: 2 µM
  TGI: 4.89 µM
NCI-H522 lung
  GI50: 1.88 µM
  TGI: 4.08 µM
COLO 205 colon
  GI50: 1.76 µM
  TGI: 3.42 µM

## CCN1C(=O)N(CC)C2C1NN=c1s/c(=C3\C(=O)N(C(C)C)c4ccccc43)c(=O)n12 (configuration not stated)
OVCAR-8 ovarian
  GI50: 0.62 µM
  TGI: > 53.4 µM
ACHN renal
  GI50: 0.525 µM
  TGI: > 42.2 µM
SF-539 CNS
  GI50: 0.24 µM
  TGI: 0.706 µM
HOP-92 NSCLC
  GI50: 0.342 µM
  TGI: 6.53 µM
UACC-257 melanoma
  GI50: > 37.7 µM
  TGI: > 100 µM
SK-OV-3 ovarian
  GI50: 0.403 µM
  TGI: 12.1 µM
NCI-H226 lung
  GI50: 0.441 µM
  TGI: 23.2 µM
M14 melanoma
  GI50: 0.376 µM
  TGI: > 100 µM
NCI-H522 lung
  GI50: 0.465 µM
  TGI: > 100 µM
COLO 205 colon
  GI50: 0.337 µM
  TGI: 1.8 µM

## O=C(O)CSSCC(=O)O
OVCAR-8 ovarian
  TGI: > 100 µM
ACHN renal
  TGI: > 100 µM
SF-539 CNS
  TGI: > 100 µM
HOP-92 NSCLC
  TGI: > 100 µM
UACC-257 melanoma
  TGI: > 100 µM
SK-OV-3 ovarian
  TGI: > 100 µM
NCI-H226 lung
  TGI: > 100 µM
M14 melanoma
  TGI: > 100 µM
NCI-H522 lung
  TGI: > 100 µM
COLO 205 colon
  TGI: > 100 µM

## O=C1C/C(=C/c2ccc(/C=C3/CC(=O)N(c4cccc(Br)c4)C3=O)cc2)C(=O)N1c1cccc(Br)c1
OVCAR-8 ovarian
  TGI: > 100 µM
ACHN renal
  TGI: > 100 µM
SF-539 CNS
  TGI: > 100 µM
HOP-92 NSCLC
  TGI: > 100 µM
UACC-257 melanoma
  TGI: > 100 µM
SK-OV-3 ovarian
  TGI: > 100 µM
NCI-H226 lung
  TGI: > 100 µM
M14 melanoma
  TGI: > 100 µM
NCI-H522 lung
  TGI: > 100 µM
COLO 205 colon
  TGI: > 100 µM

## CN(C)CCNC(=O)c1cccn2c(=O)c3cc4ccccc4cc3nc12
OVCAR-8 ovarian
  GI50: 0.0577 µM
  TGI: > 69.6 µM
ACHN renal
  GI50: 0.0422 µM
  TGI: > 36.4 µM
SF-539 CNS
  GI50: 0.161 µM
  TGI: 1.6 µM
HOP-92 NSCLC
  GI50: 0.538 µM
  TGI: > 100 µM
UACC-257 melanoma
  GI50: 0.268 µM
  TGI: 1.14 µM
SK-OV-3 ovarian
  GI50: 0.235 µM
  TGI: 22.8 µM
NCI-H226 lung
  GI50: 0.145 µM
  TGI: 2.99 µM
M14 melanoma
  GI50: 0.222 µM
  TGI: 1.21 µM
NCI-H522 lung
  GI50: 0.182 µM
  TGI: 0.856 µM
COLO 205 colon
  GI50: 0.0973 µM
  TGI: 0.246 µM

## CCCN1C(=O)/C(=c2\sc3n(c2=O)C2C(NN=3)N(CC)C(=O)N2CC)c2ccccc21 (configuration not stated)
OVCAR-8 ovarian
  GI50: 0.688 µM
  TGI: 12.3 µM
ACHN renal
  GI50: 0.625 µM
  TGI: 17.1 µM
SF-539 CNS
  GI50: 0.258 µM
  TGI: 0.802 µM
HOP-92 NSCLC
  GI50: 0.885 µM
  TGI: 16.3 µM
UACC-257 melanoma
  GI50: 1.22 µM
  TGI: 14 µM
SK-OV-3 ovarian
  GI50: 0.737 µM
  TGI: 14.9 µM
NCI-H226 lung
  GI50: 1.45 µM
  TGI: > 33 µM
M14 melanoma
  GI50: 0.413 µM
  TGI: 12.4 µM
NCI-H522 lung
  GI50: 0.356 µM
  TGI: 4.51 µM
COLO 205 colon
  GI50: 0.665 µM
  TGI: 10.4 µM

## Cn1c(=O)c2[nH]c(/N=N/N3CCN(CCO)CC3)nc2n(C)c1=O
OVCAR-8 ovarian
  TGI: > 100 µM
ACHN renal
  TGI: > 100 µM
SF-539 CNS
  TGI: > 100 µM
HOP-92 NSCLC
  TGI: > 100 µM
UACC-257 melanoma
  TGI: > 100 µM
SK-OV-3 ovarian
  TGI: > 100 µM
NCI-H226 lung
  TGI: > 100 µM
M14 melanoma
  TGI: > 100 µM
NCI-H522 lung
  TGI: > 100 µM
COLO 205 colon
  TGI: > 100 µM
